Assay results as given in US20240366589A1, “NHE3-BINDING COMPOUNDS AND METHODS FOR INHIBITING PHOSPHATE TRANSPORT” (Ardelyx, Inc., priority 2013, published 2024).

Tests used:
Rat NHE3 = biological target: T1, Rat NHE3 (Rattus norvegicus, UniProt P26433); assay: Cell-based NHE3 activity under prompt conditions (OK cells, BCECF pH recovery), rat NHE3; settings: prompt conditions; for IC50: read-out: Prompt Rat NHE3 pIC50 (converted)
T1 construct: expressed in transfected cells; host or cells: Opossum kidney (OK) cells (ATCC), electroporation
How it was run: (§1)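 Read-out: initial rate of BCECF-reported intracellular pH recovery via Na+/H+ antiport, fitted to pIC50. Opossum kidney cells transfected with rat or human NHE3; NH4Cl prepulse with 5 μM BCECF-AM, 30 min RT; Na+-free choline buffer 10 min.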

Human NHE3 = biological target: T2, Human NHE3 (Homo sapiens, UniProt P48764); assay: Cell-based NHE3 activity under prompt conditions (OK cells, BCECF pH recovery), human NHE3; settings: prompt conditions
T2 construct: expressed in transfected cells; host or cells: Opossum kidney (OK) cells (ATCC), electroporation
T2 sequence (P48764 26-834): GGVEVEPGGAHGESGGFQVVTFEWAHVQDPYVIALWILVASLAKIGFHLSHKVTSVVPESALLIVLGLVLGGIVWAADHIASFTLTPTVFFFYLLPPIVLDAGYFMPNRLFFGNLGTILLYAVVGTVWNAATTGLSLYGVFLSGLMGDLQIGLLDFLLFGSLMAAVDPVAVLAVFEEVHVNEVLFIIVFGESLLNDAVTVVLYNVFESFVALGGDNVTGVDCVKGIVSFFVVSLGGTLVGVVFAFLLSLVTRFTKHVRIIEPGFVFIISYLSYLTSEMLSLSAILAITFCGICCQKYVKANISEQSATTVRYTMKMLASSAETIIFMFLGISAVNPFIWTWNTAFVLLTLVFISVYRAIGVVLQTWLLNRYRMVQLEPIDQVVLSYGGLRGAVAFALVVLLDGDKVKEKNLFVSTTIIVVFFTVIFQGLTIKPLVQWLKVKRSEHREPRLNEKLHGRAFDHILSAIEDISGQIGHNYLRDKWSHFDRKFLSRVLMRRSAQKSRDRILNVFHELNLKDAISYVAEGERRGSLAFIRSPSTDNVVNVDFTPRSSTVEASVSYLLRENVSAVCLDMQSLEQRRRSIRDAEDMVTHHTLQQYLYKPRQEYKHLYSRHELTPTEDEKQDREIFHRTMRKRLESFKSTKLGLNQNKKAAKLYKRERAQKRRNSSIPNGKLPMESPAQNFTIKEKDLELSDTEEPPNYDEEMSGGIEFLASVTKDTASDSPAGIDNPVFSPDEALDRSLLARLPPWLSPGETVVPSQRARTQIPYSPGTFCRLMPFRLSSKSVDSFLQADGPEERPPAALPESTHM
How it was run: as §1

[1] = system: absorption of sodium from the intestinal lumen; assay: Inhibition of intestinal sodium absorption: urinary sodium (uNa) 16 h after single oral dose in rats; assay type: in vivo, rat; settings: oral gavage, 16 h post-dose
How it was run: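 Urinary sodium mass over the 16 h after one oral gavage dose, measured by cation-exchange ion chromatography, reported as percent of water-vehicle group; ANOVA plus Dunnett's post hoc test. Groups of six 8-week-old Sprague-Dawley rats, housed individually in metabolic cages post-dose, fed and watered freely.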

[2] = system: absorption of sodium from the intestinal lumen; assay: Fecal form score (FFS) 16 h after oral dose in rats; assay type: in vivo, rat; settings: oral gavage, 16 h post-dose, scale 1-5
How it was run: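 Fecal form was scored at 16 h post-dose on a 1–5 wetness scale (normal pellet to liquid stream), with two independent observations averaged across six rats per group. Animals were 8-week-old Sprague-Dawley rats given test compound or water orally in the late afternoon and kept in metabolic cages.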

[3] = system: phosphorus and calcium levels in the urine of rats; assay: Urinary excretion of phosphate and calcium in rats (16 h overnight urine); assay type: in vivo, rat; settings: rats, oral gavage, 16 h post-dose

T1 sequence (P26433 29-831): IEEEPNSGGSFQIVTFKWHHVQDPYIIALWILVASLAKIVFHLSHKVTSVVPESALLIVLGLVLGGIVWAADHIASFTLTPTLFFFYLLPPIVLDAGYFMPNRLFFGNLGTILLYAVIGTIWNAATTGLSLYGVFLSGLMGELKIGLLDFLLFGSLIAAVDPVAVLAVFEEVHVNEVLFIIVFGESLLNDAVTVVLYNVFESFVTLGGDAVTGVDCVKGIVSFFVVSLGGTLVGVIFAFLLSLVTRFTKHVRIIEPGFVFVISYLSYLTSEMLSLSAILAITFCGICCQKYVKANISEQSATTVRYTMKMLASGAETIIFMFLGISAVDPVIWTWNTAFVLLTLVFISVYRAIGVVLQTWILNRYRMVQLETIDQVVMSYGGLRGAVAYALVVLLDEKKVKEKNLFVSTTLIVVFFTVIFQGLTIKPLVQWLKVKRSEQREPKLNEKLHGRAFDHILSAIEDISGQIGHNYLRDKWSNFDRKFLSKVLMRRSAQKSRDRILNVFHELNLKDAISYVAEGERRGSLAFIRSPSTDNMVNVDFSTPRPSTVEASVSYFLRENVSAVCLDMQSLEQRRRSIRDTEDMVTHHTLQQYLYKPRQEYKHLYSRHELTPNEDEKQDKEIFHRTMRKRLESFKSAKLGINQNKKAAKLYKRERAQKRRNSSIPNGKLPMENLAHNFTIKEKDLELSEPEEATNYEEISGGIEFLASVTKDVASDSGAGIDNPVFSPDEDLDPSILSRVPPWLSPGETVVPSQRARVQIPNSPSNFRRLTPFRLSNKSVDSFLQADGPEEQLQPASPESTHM

Row | SMILES | Prompt Rat NHE3 pIC50 (Rat NHE3) | Prompt Human NHE3 pIC50 (Human NHE3) | IC50 (Rat NHE3) [µM] | IC50 (Human NHE3; read-out: Prompt Human NHE3 pIC50 (converted)) [µM] | Urine Na % of control ([1]; dose 3 mg/kg) [%] | Fecal Form Score average ([2]; dose 3 mg/kg) | Urine P % of control ([3]; dose 3 mg/kg) [%] | Urine Na % of control ([1]; dose 10 mg/kg) [%] | Fecal Form Score average ([2]; dose 10 mg/kg) | Urine P % of control ([3]; dose 10 mg/kg) [%] | Urine Na % of control ([1]; dose 1 mg/kg) [%] | Fecal Form Score average ([2]; dose 1 mg/kg) | Urine P % of control ([3]; dose 1 mg/kg) [%]
1 | C/C(=C\c1cc(F)c(Oc2ccc(S(=O)(=O)NCCOCCOCCOCCN)cc2)c(F)c1)C(=O)N=C(N)N [compound 4] | 6.90 | 6.80 |  |  |  |  |  | 84 | 1 | 106 |  |  | 
2 | C/C(=C\c1cc(F)c(Oc2ccc(S(=O)(=O)NCCOCCOCCOCCNC(=O)N3CCN(C(=O)NCCOCCOCCOCCNS(=O)(=O)c4ccc(Oc5c(F)cc(/C=C(\C)C(=O)N=C(N)N)cc5F)cc4)CC3)cc2)c(F)c1)C(=O)N=C(N)N [compound 31] | 7.70 | 7.70 |  |  |  |  |  | 96 | 1 | 81 |  |  | 
3 | NCCOCCOCCN1CCN(c2ccc(-c3nc(N=C(N)N)nc4ccc(Cl)cc34)cc2)CC1 [compound 19] | 7.00 | 7.40 |  |  |  |  |  | 72 | 1 | 119 |  |  | 
4 | N=C(N)Nc1nc(-c2cccc(OCCOCCOCCOCCNC(=O)NCCOCCOCCNC(=O)CN(CCN(CC(=O)O)CC(=O)NCCOCCOCCNC(=O)NCCOCCOCCOCCOc3cccc(-c4nc(NC(=N)N)nc5ccc(Cl)cc45)c3)CC(=O)O)c2)c2cc(Cl)ccc2n1 [compound 44] | 7.70 | 7.90 |  |  |  |  |  | 88 | 1 | 102 |  |  | 
5 | N=C(N)Nc1nc(-c2ccc(N3CCN(CCOCCOCCOCCNC(=O)NCCOCCOCCNC(=O)NCCOCCOCCOCCN4CCN(c5ccc(-c6nc(NC(=N)N)nc7ccc(Cl)cc67)cc5)CC4)CC3)cc2)c2cc(Cl)ccc2n1 [compound 20] | 7.30 | 7.20 |  |  |  |  |  | 86 | 1 | 81 |  |  | 
6 | O=C(CCOCCOCCOCCOCCOCCC(=O)NCCOCCOCCNS(=O)(=O)c1ccc(OC2c3ccccc3CC2N2CCCCC2)cc1)NCCOCCOCCNS(=O)(=O)c1ccc(OC2c3ccccc3CC2N2CCCCC2)cc1 (racemic) [compound 54] | 7.30 | 7.50 |  |  |  |  |  | 75 | 1 | 72 |  |  | 
7 | NS(=O)(=O)c1ccc(O[C@H]2c3ccccc3C[C@@H]2N2CCCCC2)cc1 (racemic) [compound 38] |  |  | 3.16 | 2.51 |  |  |  | 101 | 1 | 120 |  |  | 
8 | CN1Cc2c(Cl)cc(Cl)cc2[C@H](c2cccc(S(=O)(=O)NCCOCCOCCOCCN)c2)C1 [compound 22] | 7.34 | 6.95 |  |  |  |  |  | 19 | 2 | 40 | 91 | 1 | 64

Second part, led by results:

Row | Prompt Rat NHE3 pIC50 (Rat NHE3) | Prompt Human NHE3 pIC50 (Human NHE3) | IC50 (Rat NHE3) [µM] | IC50 (Human NHE3; read-out: Prompt Human NHE3 pIC50 (converted)) [µM] | SMILES | Urine Na % of control ([1]; dose 3 mg/kg) [%] | Fecal Form Score average ([2]; dose 3 mg/kg) | Urine P % of control ([3]; dose 3 mg/kg) [%] | Urine Na % of control ([1]; dose 10 mg/kg) [%] | Fecal Form Score average ([2]; dose 10 mg/kg) | Urine P % of control ([3]; dose 10 mg/kg) [%] | Urine Na % of control ([1]; dose 1 mg/kg) [%] | Fecal Form Score average ([2]; dose 1 mg/kg) | Urine P % of control ([3]; dose 1 mg/kg) [%]
9 | 7.20 | 7.30 |  |  | C[C@@H](O)[C@H](NC(=O)NC(CCC(=O)NCCOCCOCCNS(=O)(=O)c1cccc([C@@H]2CN(C)Cc3c(Cl)cc(Cl)cc32)c1)(CCC(=O)NCCOCCOCCNS(=O)(=O)c1cccc([C@@H]2CN(C)Cc3c(Cl)cc(Cl)cc32)c1)CCC(=O)NCCOCCOCCNS(=O)(=O)c1cccc([C@@H]2CN(C)Cc3c(Cl)cc(Cl)cc32)c1)C(N)=O [compound 159] | 27 | 2 | 55 |  |  |  |  |  | 
10 | 6.70 | 7.20 |  |  | CN1Cc2c(Cl)cc(Cl)cc2[C@H](c2cccc(S(=O)(=O)NCCOCCOCCOCCNC(=O)NCCN3CCN(c4nc(N5CCN(CCNC(=O)NCCOCCOCCOCCNS(=O)(=O)c6cccc([C@@H]7CN(C)Cc8c(Cl)cc(Cl)cc87)c6)CC5)nc(N5CCN(CCNC(=O)NCCOCCOCCOCCNS(=O)(=O)c6cccc([C@@H]7CN(C)Cc8c(Cl)cc(Cl)cc87)c6)CC5)n4)CC3)c2)C1 [compound 70] |  |  |  | 96 | 1 | 83 |  |  | 
11 | <5.00 | 7.70 |  |  | CN(C)[C@H]1Cc2ccc(F)cc2[C@@H]1Oc1ccc(S(=O)(=O)NCCOCCOCCNC(=O)NCCCCNC(=O)NCCOCCOCCNS(=O)(=O)c2ccc(O[C@H]3c4cc(F)ccc4C[C@@H]3N(C)C)cc2)cc1 [compound 136] |  |  |  | 104 | 1 | 93 |  |  | 
12 |  | 7.50 | 0.0676 |  | CN1Cc2c(Cl)cc(Cl)cc2[C@H](c2cccc(S(=O)(=O)NCCOCCOCCNC(=O)CCC(CCC(=O)NCCOCCOCCNS(=O)(=O)c3cccc([C@@H]4CN(C)Cc5c(Cl)cc(Cl)cc54)c3)(CCC(=O)NCCOCCOCCNS(=O)(=O)c3cccc([C@@H]4CN(C)Cc5c(Cl)cc(Cl)cc54)c3)N(C)C)c2)C1 [compound 124] | 22 | 2 | 61 |  |  |  | 69 | 1 | 154
13 | 7.30 | 7.30 |  |  | CN1Cc2c(Cl)cc(Cl)cc2[C@H](c2cccc(S(=O)(=O)NCCOCCOCCNC(=O)CCC(CCC(=O)NCCOCCOCCNS(=O)(=O)c3cccc([C@@H]4CN(C)Cc5c(Cl)cc(Cl)cc54)c3)(CCC(=O)NCCOCCOCCNS(=O)(=O)c3cccc([C@@H]4CN(C)Cc5c(Cl)cc(Cl)cc54)c3)NC(=O)CCCC(=O)O)c2)C1 [compound 137] | 28 | 3 | 139 |  |  |  | 39 | 1 | 137
14 | <5.00 | 8.40 |  |  | CN(C)[C@H]1Cc2c(F)cc(Cl)cc2[C@@H]1Oc1ccc(S(=O)(=O)NCCOCCOCCNC(=O)NCCCCNC(=O)NCCOCCOCCNS(=O)(=O)c2ccc(O[C@H]3c4cc(Cl)cc(F)c4C[C@@H]3N(C)C)cc2)cc1 [compound 166] |  |  |  | 111 | 1 | 43 |  |  | 
15 | 8.40 | 7.80 |  |  | CN(C)[C@H]1Cc2c(Cl)cc(Cl)cc2[C@@H]1Oc1ccc(S(=O)(=O)NCCOCCOCCNC(=O)CCC(=O)NCCOCCOCCNS(=O)(=O)c2ccc(O[C@H]3c4cc(Cl)cc(Cl)c4C[C@@H]3N(C)C)cc2)cc1 [compound 148] | 49 | 1 | 146 |  |  |  |  |  | 
16 | 8.40 | 8.10 |  |  | O=C(NCCOCCOCCNS(=O)(=O)c1ccc(O[C@H]2c3ccccc3C[C@@H]2N2CCCCC2)cc1)[C@H](O)[C@@H](O)C(=O)NCCOCCOCCNS(=O)(=O)c1ccc(O[C@H]2c3ccccc3C[C@@H]2N2CCCCC2)cc1 [compound 98] |  |  |  | 83 | 1 | 88 |  |  | 
17 | <5.00 | <5.00 |  |  | O=C(NCCCCNC(=O)NCCOCCOCCNS(=O)(=O)c1ccc(O[C@H]2c3cc(Cl)cc(Cl)c3C[C@@H]2N2CCCCC2)cc1)NCCOCCOCCNS(=O)(=O)c1ccc(O[C@H]2c3cc(Cl)cc(Cl)c3C[C@@H]2N2CCCCC2)cc1 [compound 68] |  |  |  | 70 | 1 | 97 |  |  | 
